# Laboratory results as given in patent US20260365662A1, “ISOANDROGRAPHOLIDE ANALOGS AND METHOD FOR TREATMENT USING THE SAME” (Enveda Therapeutics, Inc., priority 2023, published 2026).
# “Also recorded” adds a separate entry of the source.
# Key:
# Assay type in all cases: in vivo
# female BALB/c mouse [1] = experiment: Hapten-induced atopic dermatitis model (Example 13); conditions: for itch / number of scratches in scratch test: 10 minutes, day 13, four hours after last challenge; for immune cell infiltration: histopathology; for immune cell infiltration / epidermal thickness / histopathological changes / histopathology score: back skin; for epidermal thickness / histopathological changes / histopathology score / IL-4 expression: prophylactic; for IL-4 expression / dermatitis severity scores: vs hapten vehicle control; for dermatitis severity scores: twice a day, 14 days
# Description: Experimental details: Preclinical animal model of atopic dermatitis was developed by [COMPOUND LEFT OUT] [COMPOUND LEFT OUT], a Hapten. In the current study, the test item Compound 2 was screened to evaluate its efficacy in [COMPOUND LEFT OUT] induced AD model. 0.15% of [COMPOUND LEFT OUT] was topically applied to 7-8 weeks old female BALB/c mouse from G2-G7 group at a volume of 100 μl/mouse on back skin once in 3 days to induced disease. For the G1 group, (Vehicle control) the same volume of acetone and olive oil (3:1) that was used to solubilize [COMPOUND LEFT OUT] was applied. Dexamethasone (5 mg/kg, p.o, qd) was dosed per oral once a day to G3 group animals. Compound 2 was administered twice a day to respective treatment groups (G4-G6) for 14 days. On the day of [COMPOUND LEFT OUT] administration, test compounds were dosed one hour prior to [COMPOUND LEFT OUT] insult. Clinical scores to assess the disease intensity were measured from visual examination for erythema, scaling, excoriation, and back skin thickness using dial caliper. All the scores were carried by blinded observers to treatment groups. Cumulative dermatitis severity scores were calculated by adding up the individual scores of erythema, scaling, thickness & excoriation. On day-13 of the study, four hours after the last [COMPOUND LEFT OUT] challenge, scratching behavior was recorded using a web camera in acrylic observational chambers. The number of scratches were measured for 10 minutes. Later, all the animals were terminally bled under mild anesthesia followed by humane sacrifice and back skin tissue was dissected. Required skin tissue samples were collected in fixative and part of the tissue was flash-frozen in liquid nitrogen and stored at −80 °C. Collected tissue samples were processed and used for biomarker analysis using gene and protein expression analysis by qPCR & ELISA, pharmacokinetic analysis by LC-MS and histopathology studies.
# female BALB/c mouse [2] = experiment: MC-903 induced atopic dermatitis model, therapeutic mode (Example 14); conditions: twice a day, vs MC-903 vehicle control
# Description: Experimental details: Preclinical animal model of atopic dermatitis was developed by MC-903, a vitamin-D analogue. In the current study, the test item Compound 2 was screened in therapeutic mode, to evaluate its efficacy in MC-903 induced AD model. 2 nmol of MC-903 was topically applied to 8-10 weeks old female BALB/c mouse from G2-G8 group at a volume of 50 μl/mouse on back skin on every alternate day for 14 days to induced disease. For the G1 group, (Normal+ethanol control) the same volume of ethanol that was used to solubilize MC-903 was applied. Clobetasol (0.05%, 15 mg/mouse) was applied topically once a day to G3 group animals and Ruxolitinib (1.5%, 20 mg/mouse) was applied topically twice a day to G4 group animals. Compound 2 was administered twice a day to respective treatment groups (G4-G8) for 14 days. On the day of MC-903 administration, test compounds were dosed one hour prior to MC-903 insult. Clinical scores to assess the disease intensity were measured from visual examination for erythema, scaling and back skin thickness using dial caliper. All the scores were carried by blinded observers to treatment groups. Disease severity was assessed by dermatitis erythema & dermatitis scaling.
# female BALB/c mouse [3] = experiment: MC-903 induced atopic dermatitis model, therapeutic mode, vs oral JAK-i (Example 15); conditions: twice a day; for dermatitis severity scores: vs MC-903 vehicle control
# Description: Experimental details: Preclinical animal model of atopic dermatitis was developed by MC-903, a vitamin-D analogue. In the current study, the test item Compound 2 was screened in therapeutic mode, to evaluate its efficacy in MC-903 induced AD model. 2 nmol of MC-903 was topically applied to 8-10 weeks old female BALB/c mouse from G2-G8 group at a volume of 50 μl/mouse on back skin on every alternate day for 14 days to induced disease. For the G1 group, (Normal+ethanol control) the same volume of ethanol that was used to solubilize MC-903 was applied. Clobetasol (0.05%, 15 mg/mouse) was applied topically once a day to G3 group animals, Upadacitinib was dosed oral twice a day at 2, 6 & 20 mg/kg to G4, G5 & G6 respectively. Compound 2 was administered twice a day to respective treatment groups (G7-G10) for 14 days. On the day of MC-903 administration, test compounds were dosed one hour prior to MC-903 insult. Clinical scores to assess the disease intensity were measured from visual examination for erythema, scaling and back skin thickness using dial caliper. All the scores were carried by blinded observers to treatment groups. Disease severity was assessed by dermatitis severity scores.
# female BALB/c mouse [4] = experiment: MC-903 induced atopic dermatitis model, therapeutic mode, low doses (Example 16); conditions: p.o. twice a day; for dermatitis severity scores: 0.01 to 10 mg/kg, vs MC-903 vehicle control
# Description: Experimental details: Preclinical animal model of atopic dermatitis was developed by MC-903, a vitamin-D analogue. In the current study, the test item Compound 2 was screened in therapeutic mode, to evaluate its efficacy in MC-903 induced AD model. 2 nmol of MC-903 was topically applied to 8-10 weeks old female BALB/c mouse from G2-G8 group at a volume of 50 μl/mouse on back skin on every alternate day for 14 days to induced disease. For the G1 group, (Normal+ethanol control) the same volume of ethanol that was used to solubilize MC-903 was applied. Clobetasol (0.05%, 15 mg/mouse) was applied topically once a day to G3 group animals. Compound 2 was administered per oral twice a day at 0.01, 0.1, 1, 3 & 10 mg/kg to respective treatment groups (G4-G8) for 14 days. On the day of MC-903 administration, test compounds were dosed one hour prior to MC-903 insult. Clinical scores to assess the disease intensity were measured from visual examination for erythema, scaling and back skin thickness using dial caliper. All the scores were carried by blinded observers to treatment groups. Disease severity was assessed by dermatitis severity scores.
structure (smiles),measurement,setting,value
"C[C@@]12CCC(=O)N[C@@](C)(CO)[C@H]1CC[C@@]1(C)O[C@H](C3=CCOC3=O)C[C@@H]21 [Compound 2, (2S,3aR,5aS,6R,10aR,10bS)-6-(hydroxymethyl)-3a,6,10a-trimethyl-2-(2-oxo-2,5-dihydrofuran-3-yl) dodecahydro-8H-benzofuro[5,4-c]azepin-8-one]",itch / number of scratches in scratch test,female BALB/c mouse [1],reduced
same,itch / number of scratches in scratch test,female BALB/c mouse [1]; listed as compound 2,reduces itch comparably to current first line therapy
same,immune cell infiltration,female BALB/c mouse [1],significantly reduced
same,immune cell infiltration,female BALB/c mouse [1]; listed as compound 2,reduces immune cell infiltration
same,epidermal thickness,female BALB/c mouse [1],significantly reduced
same,histopathological changes / histopathology score,female BALB/c mouse [1],significantly reduced
same,epidermal thickness,female BALB/c mouse [1]; listed as compound 2,significantly reduces
same,histopathological changes / histopathology score,female BALB/c mouse [1]; listed as compound 2,ameliorates; also recorded: significantly reduces
same,IL-4 expression,female BALB/c mouse [1],reduced
same,IL-4 expression,female BALB/c mouse [1]; listed as compound 2,impacts IL-4 expression
same,dermatitis severity scores,female BALB/c mouse [1],Significantly Reduces; also recorded: dose dependent decrease
same,dermatitis severity scores,female BALB/c mouse [1]; listed as compound 2,dose dependent decrease
same,dermatitis erythema scores,female BALB/c mouse [2],dose dependent decrease
same,dermatitis scaling scores,female BALB/c mouse [2],dose dependent decrease
same,dermatitis erythema scores,female BALB/c mouse [2]; listed as compound 2,significantly reduces
same,dermatitis scaling scores,female BALB/c mouse [2]; listed as compound 2,significantly reduces
same,efficacy compared with oral JAK-i,female BALB/c mouse [3],Efficacy On-Par with Oral JAK-i
same,dermatitis severity scores,female BALB/c mouse [3],significant dose dependent decrease in dermatitis severity scores on-par with oral JAK-i
same,dermatitis severity scores,female BALB/c mouse [3]; listed as compound 2,significantly reduces dermatitis severity scores on-par with oral JAK-i
same,minimal effective dose,"female BALB/c mouse [4]; Mus musculus, po, 336 h, doses 0.01, 0.1, 1, 3, 10 mg/kg, read-out: lowest active dose (dermatitis severity scores)",0.1 mg/kg
same,dermatitis severity scores,female BALB/c mouse [4],significant dose dependent decrease
same,dermatitis severity scores,female BALB/c mouse [4]; listed as compound 2,significantly reduces
